Consider 3 molecules from US20090029992A1, “SUBSTITUTED PYRAZOLE COMPOUNDS” (priority 2007, published 2009).

Bounds are passed on as bounds.

Common to all, as to assay type: biochemical
The target of one experiment is T1, Aurora B kinase (Homo sapiens, UniProt Q96GD4).
T1 construct: purchased BPS Biosciences, San Diego, Calif
In words: Aurora B (Aurora 1) inhibition assay. Conditions: ATP 50 μM, 16 h. Here is the method: Compounds were tested for their potency against recombinant Aurora A (Upstate, Lake Placid, N.Y.) using the PanVera Z′-Lyte kinase assay kit—Ser/Thr 1 peptide (Invitrogen, Carlsbad, Calif.). Assays were carried out in kinase assay buffer (50 mM HEPES, pH 7.5, 10 mM MgCl2, 5 mM EGTA, 0.05% Brij-35, 2 mM DTT). Test compounds were initially dissolved in DMSO at 100× the highest tested concentration, then serially diluted to 4× test concentrations in kinase assay buffer. Next, Aurora A (final concentration 200-500 ng/mL), Z′-Lyte Ser/Thr 1 peptide (final concentration 2 μM) and ATP (final concentration 10 μM) were added according to the manufacturer's instructions. Assays were carried out in half-area 96-well white polystyrene assay plates (Corning, Corning, N.Y.) in a final volume of 20 μl. The reaction was allowed to proceed for 1 h at room temperature in the dark, at which point the development reagent and stop reagent were added according to the manufacturer's instructions. Coumarin (Ex. 400 nm, Em. 465 nm) and fluorescein (Ex. 400 nm, Em. 565 nm) fluorescence values were measured on a SpectraFluor Plus plate reader (Tecan, Durham, N.C.). The emission ratio (coumarin/fluorescein) was determined and used to calculate the percent phosphorylation for each well. Wells containing substrate but no kinase and wells containing a phosphopeptide control were used to set 0% and 100% phosphorylation values, respectively. Typically 20-40% of the substrate was phosphorylated in wells without inhibitor. Dose-response curves of relative Aurora A activity vs. inhibitor concentration were plotted with Grafit (Erithacus Software, Horley, Surrey, UK).
Assays for Aurora B kinase inhibition were carried out similarly to those for Aurora A kinase (see above) with the following modifications. Aurora B kinase (BPS Biosciences, San Diego, Calif.) was used as the enzyme, at a concentration was 2.5 μg/mL. The ATP concentration was 50 μM, and the kinase reaction was allowed to proceed for 16 h. Sodium orthovanadate (20 μM) was added to the buffer to inhibit contaminating phosphatases.

Experiment [1] deals with T2, N-terminal His-tagged human Src (Homo sapiens, UniProt P12931).
T2 construct: His (N); purchased Upstate USA Inc, 706 Forest Street, Charlottesville, Va
T2 sequence (P12931 whole entry): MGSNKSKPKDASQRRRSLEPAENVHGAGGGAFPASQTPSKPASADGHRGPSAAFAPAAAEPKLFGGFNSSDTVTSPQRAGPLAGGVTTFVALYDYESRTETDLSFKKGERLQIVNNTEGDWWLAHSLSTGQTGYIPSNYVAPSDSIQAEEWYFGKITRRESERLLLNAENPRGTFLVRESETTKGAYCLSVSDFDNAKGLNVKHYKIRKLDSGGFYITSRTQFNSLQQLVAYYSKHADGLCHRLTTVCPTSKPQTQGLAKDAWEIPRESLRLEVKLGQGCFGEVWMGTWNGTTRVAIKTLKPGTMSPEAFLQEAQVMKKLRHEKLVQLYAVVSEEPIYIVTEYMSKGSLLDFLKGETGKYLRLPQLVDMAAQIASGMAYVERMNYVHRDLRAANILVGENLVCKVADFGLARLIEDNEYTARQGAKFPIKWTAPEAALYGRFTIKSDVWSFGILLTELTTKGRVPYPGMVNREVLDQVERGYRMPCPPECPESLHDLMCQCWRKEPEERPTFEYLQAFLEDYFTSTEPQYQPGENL
Briefly: Src kinase inhibition assay (33P-ATP filter assay). Particulars: 40 minutes at room temperature.

Experiment [2] deals with T3, N-terminal GST-tagged recombinant human Flt3, residues 564-end (Homo sapiens, UniProt P36888).
T3 construct: recombinant human Flt3, residues 564-end; GST (N); purchased Upstate USA Inc, 706 Forest Street, Charlottesville, Va
T3 sequence (P36888 564-993 limits assumed): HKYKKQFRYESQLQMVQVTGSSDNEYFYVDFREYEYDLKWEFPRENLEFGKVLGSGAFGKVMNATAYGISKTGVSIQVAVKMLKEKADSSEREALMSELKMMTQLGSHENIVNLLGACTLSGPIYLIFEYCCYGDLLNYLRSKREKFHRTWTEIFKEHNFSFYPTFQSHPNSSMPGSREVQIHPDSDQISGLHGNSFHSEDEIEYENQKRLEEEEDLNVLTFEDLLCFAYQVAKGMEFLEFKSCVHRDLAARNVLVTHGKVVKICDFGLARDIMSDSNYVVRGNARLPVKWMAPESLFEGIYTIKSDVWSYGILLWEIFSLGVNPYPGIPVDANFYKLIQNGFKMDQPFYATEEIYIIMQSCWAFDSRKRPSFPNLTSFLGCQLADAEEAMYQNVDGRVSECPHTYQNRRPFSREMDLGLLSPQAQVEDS
In words: Flt3 kinase inhibition assay (33P-ATP filter assay). Conditions: 40 minutes at room temperature. An outline of the steps: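 Serial compound dilutions incubated 40 min at room temperature with 5-10 mU Flt3 kinase, 50 μM peptide substrate and [γ-33P]ATP/10 mM magnesium acetate, pH 7.0. Phosphoric acid stop, filter capture and scintillation counting; activity compared with uninhibited reactions.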

T1 sequence (Q96GD4 whole entry): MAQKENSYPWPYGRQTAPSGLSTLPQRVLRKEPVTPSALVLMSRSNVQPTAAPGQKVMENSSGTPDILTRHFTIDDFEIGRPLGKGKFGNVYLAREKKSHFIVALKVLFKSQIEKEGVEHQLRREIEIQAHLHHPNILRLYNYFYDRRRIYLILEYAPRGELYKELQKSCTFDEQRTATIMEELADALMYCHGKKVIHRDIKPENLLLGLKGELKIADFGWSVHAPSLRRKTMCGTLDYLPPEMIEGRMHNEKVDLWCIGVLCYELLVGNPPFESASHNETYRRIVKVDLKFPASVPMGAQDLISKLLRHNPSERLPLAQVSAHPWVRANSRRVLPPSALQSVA

As for `Cc1cc(Nc2cc(N3CCN(C)CC3)nc(-c3cccc([N+](=O)[O-])c3)n2)n[nH]1` [Example 162, N-(5-methyl-1H-pyrazol-3-yl)-6-(4-methylpiperazin-1-yl)-2-(3-nitrophenyl)pyrimidin-4-amine], the half-inhibitory concentration (IC50) (commonly the concentration that gives 50% inhibition) on Aurora B kinase was ≤ 1000 nM; in experiment [1] it was ≤ 100 nM; in experiment [2] it was ≤ 100 nM.

With `COc1cc(OC)cc(-c2nc(Nc3cc(C)[nH]n3)cc(N3CCN(C)CC3)n2)c1` [Example 191, 2-(3,5-dimethoxyphenyl)-N-(5-methyl-1H-pyrazol-3-yl)-6-(4-methylpiperazin-1-yl)pyrimidin-4-amine], the IC50 was ≤ 1000 nM at Aurora B kinase, ≤ 100 nM in experiment [1] and ≤ 100 nM in experiment [2].

As for `Cc1cc(Nc2cc(N3CCN(C)CC3)nc(-c3cc(F)cc(F)c3)n2)n[nH]1` [Example 170, 2-(3,5-difluorophenyl)-N-(5-methyl-1H-pyrazol-3-yl)-6-(4-methylpiperazin-1-yl)pyrimidin-4-amine], the results for the IC50 (on Aurora B kinase; in experiment [1]; in experiment [2]) were ≤ 1000 nM, ≤ 100 nM and ≤ 100 nM, respectively.
